System: K/B×N serum induced arthritis in mice
Assay: K/B×N serum transfer inflammatory arthritis, MCTR3 given immediately after disease onset
Assay type: in vivo, mouse
Description: FIG. 7: MCTR3 limits joint inflammation. Mice were administered K/B×N serum on days 0 and 2 and then treated with MCTR3 (100 ng/mouse) or Vehicle (PBS+0.1% EtOH) on days 3 and 5. Disease course was evaluated by assessing (A) clinical scores. (B-C) On day 7 joints were collected and disease severity was evaluated using (B) H&E Staining and (C) glycosaminoglycan content was assessed using Safranin-O staining, arrows denote Safranin-O staining in cartilage. Results for A are presented as mean±SEM. Statistical differences for A were evaluated using Two-Way ANOVA. n=4 mice per group. IFP=intrapatellar fat, M=meniscus, TB=Tibia, PF=Pannus formation, Red arrows denote leukocyte infiltration. (D-E) Lipid mediator profiles were determined using LC-MS/MS-based lipid mediator profiling and evaluated using PLS-DA. (D) scores plot with highlighted regions denoting the clusters representing cells from each group and (E) VIP scores for top 15 mediators. Each dot in the score plot represents a separate mouse.
For this purpose, we employed a serum transfer model of inflammatory arthritis, which relies on the activation of the innate immune system replicating the effector phase of rheumatoid arthritis (Korganow et al., 1999, Immunity 10, 451-461). […] We next evaluated whether MCTR3 administration also regulated the joint lipid mediator profile. Using partial least square discriminant analysis, which produces a regression model built using concentrations of lipid mediators differently expressed between the two groups, we found a shift in joint lipid mediator concentrations in mice treated with MCTR3. This shift was linked with a downregulation of pro-inflammatory and nociceptive eicosanoids including PGE2 and PGF2a and an upregulation of pro-resolving and anti-nociceptive mediators such as MaR1 and PDX (FIG. 7D,E).
All samples were extracted using solid-phase extraction columns as in (Gomez et al., 2020, Nat Commun 11, 5420). In brief, samples were placed in ice-cold methanol containing deuterated internal standards (d8-5S-HETE, d4-LTB4, d5-LXA4, d4-PGE2, d5-RvD2, d5-MaR1, d5-MaR2, d5-RvD3, d4-RvE1, d5-17R-RvD1, d5-LTC4, d5-LTD4 and d5-LTE4) representing each chromatographic region of identified LM. Following protein precipitation (−20° C. for a minimum of 45 min), samples were centrifuged and supernatants extracted using an ExtraHera System (Biotage) using solid-phase extraction with Isolute C18 500 mg columns (Biotage). Methyl formate and methanol fractions were collected, brought to dryness and resuspended in phase (methanol/water, 1:1, vol/vol) for injection on a Shimadzu LC-20AD HPLC and a Shimadzu SIL-20AC autoinjector, paired with a QTrap 5500 or QTrap 6500^+ (Sciex). In the analysis of mediators eluted in the methyl formate fraction, an Agilent Poroshell 120 EC-C18 column (100 mm×4.6 mm×2.7 μm) was kept at 50° C. and mediators eluted using a mobile phase consisting of methanol/water/acetic acid of 20:80:0.01 (vol/vol/vol) that was ramped to 50:50:0.01 (vol/vol/vol) over 0.5 min and then to 80:20:0.01 (vol/vol/vol) from 2 min to 11 min, maintained till 14.5 min and then rapidly ramped to 98:2:0.01 (vol/vol/vol) for the next 0.1 min. This was subsequently maintained at 98:2:0.01 (vol/vol/vol) for 5.4 min, and the flow rate was maintained at 0.5 ml/min. QTrap 5500 was operated in negative ionization mode using a multiple reaction monitoring method. […]

[1] = 100 ng/mouse on days 3 and 5, LC-MS/MS, PLS-DA
[2] = 100 ng/mouse on days 3 and 5, joints day 7

SMILES: CC/C=C\C/C=C\C[C@H](O)[C@@H](/C=C/C=C/C=C\C/C=C\CCC(=O)O)SC[C@H](N)C(=O)O [MCTR3, 13R-cysteinyl, 14S-hydroxy-4Z, 7Z, 9E, 11E, 13R, 14S, 16Z, 19Z-docosahexaenoic acid]
- joint pro-inflammatory and nociceptive eicosanoids including PGE2 and PGF2a [1]: downregulation
- joint pro-resolving and anti-nociceptive mediators such as MaR1 and PDX [1]: upregulation
- leukocyte infiltration (H&E) [2]: decrease
- safranin staining (glycosaminoglycan content in the cartilage) [2]: increased
- clinical scores (100 ng/mouse on days 3 and 5, vs vehicle): significant reduction
